The test system of data set [1] is Human peripheral blood mononuclear cells. The experiment in a line: Human Concanavalin-A Proliferation Assay (Con HU Assay). In kind it is cell-based. The following applies: concanavalin-A stimulated human PBMC; for inhibition at 1 µM / inhibition at 10 µM / inhibition at 100 µM: 72 h, 3 days, read-out: % Inhibition of proliferation (at concentrations of 1,10, or 100 μm); for inhibition at 1 µM: concentration 1 μm (in parentheses in the cell); for inhibition at 10 µM: concentration 10 μm (in parentheses in the cell); for IC50: tritiated thymidine; for inhibition at 100 µM: concentration 100 μm (in parentheses in the cell). In outline: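 Histopaque-isolated human PBMC (50,000/well) were pre-incubated 15 min with compounds, then stimulated with concanavalin-A at 2.5 μg/ml final for 3 days at 37 °C, 5% CO2. Proliferation measured by 6 h pulse with 0.5 μCi/well [3H]thymidine and beta counting.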

As a reminder, the melting point is the temperature, or range, at which the solid turns liquid. As to `O=C(Nc1ccc(-n2nc(C(F)(F)F)cc2C(F)(F)F)cc1)C1CC1` [Example 1, N-[4-[3,5-bis(trifluoromethyl)-1H-pyrazol-1-yl]phenyl]cyclopropanecarboxamide], the melting point lay within 204 to 205 °C. In addition, the inhibition at 1 µM in data set [1] (Homo sapiens, PBMC) is 68%.

For orientation: IC50 means the midpoint of a concentration-inhibition curve. Regarding `CC1(C(=O)Nc2ccc(-n3nc(C(F)(F)F)cc3C(F)(F)F)cc2)CC1(Cl)Cl` (stereo not shown) [Example 3, N-[4-[3,5-bis(trifluoromethyl)-1H-pyrazol-1-yl]phenyl]-2,2-dichloro-1-methylcyclopropanecarboxamide], the melting point lay in the range of 143 to 145 °C. In data set [1] (Homo sapiens, PBMC), the inhibition at 10 µM was 100% and the concentration for half-maximal inhibition (IC50) was determined as 328 nM.

In turn, `CCCCCc1ccc(C(=O)Nc2ccc(-n3nc(C(F)(F)F)cc3C(F)(F)F)cc2)c(=O)o1` [Example 4, N-[4-[3,5-bis(trifluoromethyl)-1H-pyrazol-1-yl]phenyl]-2-oxo-6-pentyl-2H-pyran-3-carboxamide] showed a melting point of 140 to 141 °C. In data set [1] (Homo sapiens, PBMC), the inhibition at 100 µM was 82% and the 50% inhibitory concentration (IC50) was 28800 nM.

For the compound `CC1CC1C(=O)Nc1ccc(-n2nc(C(F)(F)F)cc2C(F)(F)F)cc1` (stereo not shown) [Example 7, N-[4-[3,5-bis(trifluoromethyl)-1H-pyrazol-1-yl]phenyl]-2-methylcyclopropanecarboxamide], the melting point fell in the range of 172 to 173 °C. Moreover, in data set [1] (Homo sapiens, PBMC), the inhibition at 10 µM came to 97% and half-maximal inhibition (IC50) required 403 nM.

With `CC1(C(=O)Nc2ccc(-n3nc(C(F)(F)F)cc3C(F)(F)F)cc2)C=CCCC1` (stereo not shown) [Example 9, N-[4-[3,5-bis(trifluoromethyl)-1H-pyrazol-1-yl]phenyl]-1-methyl-2-cyclohexene-1-carboxamide], the melting point lay in the range of 108 to 110 °C. Also, in data set [1] (Homo sapiens, PBMC), the inhibition at 1 µM is 35%.

`O=C(Nc1ccc(-n2nc(C(F)(F)F)cc2C(F)(F)F)cc1)C1=CCCC1` [Example 10, N-[4-[3,5-bis(trifluoromethyl)-1H-pyrazol-1-yl]phenyl]-1-cyclopentene-1-carboxamide] had a melting point of 174 to 175 °C. In data set [1] (Homo sapiens, PBMC), the inhibition at 10 µM worked out at 100% and the concentration for half-maximal inhibition (IC50) is 114 nM.

On to `COC1CCCC(C(=O)Nc2ccc(-n3nc(C(F)(F)F)cc3C(F)(F)F)cc2)C1` (stereo not shown) [Example 11, N-[4-[3,5-bis(trifluoromethyl)-1H-pyrazol-1-yl]phenyl]-3-methoxycyclohexanecarboxamide], for which the melting point was in the range of 145 to 147 °C. Moreover, in data set [1] (Homo sapiens, PBMC), the inhibition at 10 µM was 100% and half-maximal inhibition (IC50) required 376 nM.

In the case of `CC#CC(=O)Nc1ccc(-n2nc(C(F)(F)F)cc2C(F)(F)F)cc1` [Example 12, N-[4-[3,5-bis(trifluoromethyl)-1H-pyrazol-1-yl]phenyl]-2-butynamide], the melting point fell in the range of 220 to 221 °C. Also, in data set [1] (Homo sapiens, PBMC), the inhibition at 10 µM turned out to be 98% and the half-maximal inhibitory concentration (IC50) worked out at 427 nM.

Consider `CCOC(=O)c1cccc(NC(=O)Nc2ccc(-n3nc(C(F)(F)F)cc3C(F)(F)F)cc2)c1` [Example 13, ethyl 3-[[[[4-[3,5-bis(trifluoromethyl)-1H-pyrazol-1-yl]phenyl]amino]carbonyl]amino]-benzoate], for which the melting point lay in the range of 211 to 212 °C. For the same compound, in data set [1] (Homo sapiens, PBMC), the inhibition at 100 µM is 99% and the IC50 is 2840 nM.

`O=C(Nc1ccc(-n2nc(C(F)(F)F)cc2C(F)(F)F)cc1)c1ccoc1` [Example 14, N-[4-[3,5-bis(trifluoromethyl)-1H-pyrazol-1-yl]phenyl]-3-furancarboxamide] came in with a melting point of 206 to 207 °C. For the same compound, in data set [1] (Homo sapiens, PBMC), the inhibition at 100 µM was found to be 97% and the IC50 is 538 nM.

For `Cc1c(C(=O)Nc2ccc(-n3nc(C(F)(F)F)cc3C(F)(F)F)cc2)cccc1[N+](=O)[O-]` [Example 15, N-[4-[3,5-bis(trifluoromethyl)-1H-pyrazol-1-yl]phenyl]-2-methyl-3-nitrobenzamide], the melting point was 194 to 195 °C. In data set [1] (Homo sapiens, PBMC), the inhibition at 100 µM worked out at 99% and the IC50 was 274 nM.

Consider `N#Cc1cccc(NC(=O)Nc2ccc(-n3nc(C(F)(F)F)cc3C(F)(F)F)cc2)c1` [Example 16, N-[4-[3,5-bis(trifluoromethyl)-1H-pyrazol-1-yl]phenyl]-N′-(3-cyanophenyl)urea], for which the melting point lay in the range of 204 to 205 °C. In data set [1] (Homo sapiens, PBMC), the inhibition at 100 µM is 100% and the half-inhibitory concentration (IC50) turned out to be 4190 nM.

On to `O=C(Nc1ccc(-n2nc(C(F)(F)F)cc2C(F)(F)F)cc1)C1(O)CC1` [Example 17, N-[4-[3,5-bis(trifluoromethyl)-1H-pyrazol-1-yl]phenyl]-1-hydroxycyclopropanecarboxamide], for which the melting point was in the range of 198 to 200 °C. Also, in data set [1] (Homo sapiens, PBMC), the inhibition at 1 µM was 18%.

On to `O=C(Nc1ccc(-n2nc(C(F)(F)F)cc2C(F)(F)F)cc1)C1CCCCCC1` [Example 18, N-[4[3,5-bis(trifluoromethyl)-1H-pyrazol-1-yl]phenyl]cycloheptanecarboxamide], for which the melting point was in the range of 174 to 175 °C. In data set [1] (Homo sapiens, PBMC), the inhibition at 100 µM was 100% and the IC50 turned out to be 374 nM.

`O=C(Nc1ccc(-n2nc(C(F)(F)F)cc2C(F)(F)F)cc1)c1cc2ccccc2o1` [Example 19, N-[4-[3,5-bis(trifluoromethyl)-1H-pyrazol-1-yl]phenyl]-2-benzofurancarboxamide] had a melting point of 213 to 215 °C. Also, in data set [1] (Homo sapiens, PBMC), the inhibition at 1 µM stood at 9%.

On to `O=C(Nc1ccc(-n2nc(C(F)(F)F)cc2C(F)(F)F)cc1)c1cc2cc(F)ccc2[nH]1` [Example 20, N-[4-[3,5-bis(trifluoromethyl)-1H-pyrazol-1-yl]phenyl]-5-fluoro-1H-indole-2-carboxamide], for which the melting point lay in the range of 253 to 255 °C. Besides, the inhibition at 1 µM in data set [1] (Homo sapiens, PBMC) came to 10%.

`O=C(/C=C/c1ccccc1Cl)Nc1ccc(-n2nc(C(F)(F)F)cc2C(F)(F)F)cc1` [Example 21, (E)-N-[4-[3,5-bis(trifluoromethyl)-1H-pyrazol-1-yl]phenyl]-3-(2-chlorophenyl)-2-propenamide] had a melting point of 173 to 175 °C. Further, the inhibition at 1 µM in data set [1] (Homo sapiens, PBMC) was found to be 2%.

Regarding `O=C(Nc1ccc(-n2nc(C(F)(F)F)cc2C(F)(F)F)cc1)c1ccccc1C(=O)c1ccccc1` [Example 22, 2-Benzoyl-N-[4-[3,5-bis(trifluoromethyl)-1H-pyrazol-1-yl]phenyl]benzamide], the melting point was in the range of 204 to 205 °C. In addition, the inhibition at 1 µM in data set [1] (Homo sapiens, PBMC) amounted to 14%.

`O=C(Nc1ccc(-n2nc(C(F)(F)F)cc2C(F)(F)F)cc1)c1cccc(I)c1` [Example 25, N-[4-[3,5-bis(trifluoromethyl)-1H-pyrazol-1-yl]phenyl]-3-iodobenzamide]: the melting point lay in the range of 192 to 193 °C. Besides, in data set [1] (Homo sapiens, PBMC), the inhibition at 10 µM turned out to be 100% and the 50% inhibitory concentration (IC50) amounted to 396 nM.

With `CCC(NC(=O)OCc1ccccc1)C(=O)Nc1ccc(-n2nc(C(F)(F)F)cc2C(F)(F)F)cc1` (stereo not shown) [Example 28, phenylmethyl [1-[[[4-[3,5-bis(trifluoromethyl)-1H-pyrazol-1-yl]phenyl]amino]carbonyl]propyl]carbamate], the melting point was 158 to 160 °C. Also, in data set [1] (Homo sapiens, PBMC), the inhibition at 1 µM came out at 12%.

`O=C(Nc1ccc(-n2nc(C(F)(F)F)cc2C(F)(F)F)cc1)C1CC=CCC1` (stereo not shown) [Example 29, N-[4-[3,5-bis(trifluoromethyl)-1H-pyrazol-1-yl]phenyl]-3-cyclohexene-1-carboxamide] had a melting point of 177 to 178 °C. For the same compound, in data set [1] (Homo sapiens, PBMC), the inhibition at 10 µM worked out at 100% and the IC50 came to 51 nM.

For the compound `O=C(Nc1ccc(F)cc1)c1ccc(-n2nc(C(F)(F)F)cc2C(F)(F)F)cc1` [Example 30, 4-[3,5-bis(trifluoromethyl)-1H-pyrazol-1-yl]-N-(4-fluorophenyl)benzamide], the melting point was in the range of 194 to 195 °C. In addition, the inhibition at 1 µM in data set [1] (Homo sapiens, PBMC) worked out at 6%.

With `O=C(Nc1ccc(-n2nc(-c3nccs3)cc2Cl)cc1)c1ccncc1F` [Example 347, N-(4-(5-chloro-3-(1,3-thiazol-2-yl)-1H-pyrazol-1-yl)phenyl)-3-fluoroisonicotinamide], in data set [1] (Homo sapiens, PBMC), half-maximal inhibition (IC50) was put at 288 nM.

`Cc1nnsc1C(=O)Nc1ccc(-n2nc(-c3ccoc3)cc2Cl)cc1` [Example 355, N-(4-(5-chloro-3-(3-furyl)-1H-pyrazol-1-yl)phenyl)-4-methyl-1,2,3-thiadiazole-5-carboxamide] came in with a half-inhibitory concentration (IC50) in data set [1] (Homo sapiens, PBMC) of 282 nM.

In data set [1] (Homo sapiens, PBMC), `N#Cc1cc(C2CCCO2)nn1-c1ccc(NC(=O)c2ccncc2F)cc1` (stereo not shown) [Example 357, N-(4-(5-cyano-3-tetrahydro-2-furanyl-1H-pyrazol-1-yl)phenyl)-3-fluoroisonicotinamide] returned an IC50 of 1860 nM.

`Cn1ccc(-c2cc(OC(F)F)n(-c3ccc(NC(=O)c4ccncc4F)cc3)n2)c1` [Example 358, N-(4-(5-(difluoromethoxy)-3-(1-methyl-1H-pyrrol-3-yl)-1H-pyrazol-1-yl)phenyl)-3-fluoroisonicotinamide] gave a half-maximal inhibitory concentration (IC50) in data set [1] (Homo sapiens, PBMC) of 203 nM.

Take `O=C(Nc1ccc(-n2nc(-c3ccoc3)cc2OC(F)F)cc1)c1ccncc1F` [Example 359, N-(4-(5-(difluoromethoxy)-3-(3-furyl)-1H-pyrazol-1-yl)phenyl)-3-fluoroisonicotinamide]: the IC50 in data set [1] (Homo sapiens, PBMC) came to 261 nM.

With `Cn1cccc1-c1cc(OC(F)F)n(-c2ccc(NC(=O)c3ccncc3F)cc2)n1` [Example 360, N-(4-(5-(difluoromethoxy)-3-(1-methyl-1H-pyrrol-2-yl)-1H-pyrazol-1-yl)phenyl)-3-fluoroisonicotinamide], the IC50 in data set [1] (Homo sapiens, PBMC) was found to be 329 nM.

“N-(4-(5-acetyl-3-(trifluoromethyl)-1H-pyrazol-1-yl)phenyl)-2-fluorobenzamide [Example 305]” came in with an IC50 in data set [1] of 170 nM.

The values above are taken from patent US20010044445A1, “AZOLE INHIBITORS OF CYTOKINE PRODUCTION” (priority 1999, published 2001).
